According to patent US20160178584A1, “METHODS FOR DIAGNOSING AND ASSESSING KIDNEY DISEASE” (THE REGENTS OF THE UNIVERSITY OF CALIFORNIA, priority 2010, published 2016):

Legend:
[1] = test system: subjects with diabetic nephropathy; assay: Urine metabolomics in subjects treated with pirfenidone; type: in vivo, human; details: second cohort of patients enrolled in a separate trial
Excerpt: Twenty-four hour urine was collected from both control and D-CKD subjects. A composite quantitative urine organic acid estimation was done using the Agilent 5973 […] and Mass spectrometry. Seventy-six different organic acids were looked at per sample and the results were standardized per mmol of creatinine.
Based on this study, the basis for why pirfenidone benefited some patients and not others was unclear. Despite available clinical data and protein biomarker studies there was little understanding on how to dose and prescribe this drug in a future study. Urine metabolomics was performed in subjects enrolled in this study at baseline and at 6 months after enrollment. A panel of metabolites based on a specific ratio added predictive value to the outcome on the drug. […] Similar approaches can be employed with other clinical trials to identify which patients will respond to drug, which patients will not, and identify potential new mechanisms. Additionally, metabolite profiles could predict adverse events in patients that are ongoing or will develop in the future.

[2] = test system: patients with advanced and treatment-refractory focal segmental sclerosis; details: cited from earlier work
[3] = test system: subjects with diabetic nephropathy; assay: Randomized double-blind, placebo-controlled exploratory trial of pirfenidone: eGFR change (primary endpoint); type: in vivo, human; details: for eGFR Change, with imputation: 54 weeks, completers plus subjects who began dialysis, end-of-study eGFR imputed as 10 ml/min per 1.73 m2; for eGFR Change: over 54 weeks, 52 study completers, mean ± SD
Experimental: Pirfenidone is an orally-available anti-fibrotic agent that has shown efficacy in animal models of diabetic nephropathy and human focal segmental glomerulosclerosis. A randomized double-blind, placebo-controlled exploratory trial of pirfenidone was performed in subjects with diabetic nephropathy with elevated albuminura and reduced glomerular filtration rate (eGFR) (20-75 ml/min per 1.73 m^2). The pre-specified primary outcome was eGFR change after one year of therapy. 78 subjects were randomly allocated to placebo (n=27), pirfenidone 1200 mg/d (n=26), or pirfenidone 2400 mg/d (n=25). 52 subjects completed the study. During the course of the study, eGFR increased with pirfenidone 1200 mg/d [+3.3±8.5 ml/min per 1.73 m^2 (mean±SD)], whereas eGFR fell with placebo (−2.2±4.8 ml/min per 1.73 m^2, p<0.03 versus pirfenidone 1200 mg/d) and with pirfenidone 2400 mg/d (−1.9±6.7 ml/min per 1.73 m^2, P=0.25 versus placebo). Of the initial 77 subjects, 5 initiated hemodialysis during the study: 4 in the placebo group, 0 in the pirfenidone 1200 mg group and 1 in the pirfenidone 2400 mg group (P=0.25). Baseline serum albumin levels were statistically associated with eGFR improvement in the entire cohort (p=0.001) and in the pirfenidone 2400 group (+0.9 [95% CI 0.7 to 1.1], p=0.03).
The study protocol was approved by the institutional review boards of the participating centers and all patients provided written consent. Trial sites were Thomas Jefferson University, Philadelphia, Pa.; the Mayo Clinic, Rochester, Minn.; and the NIH Clinical Center, Bethesda, Md. At the pre-study evaluation, the potential study candidates provided a medical history and underwent a complete physical examination, including clinical laboratory determinations and the measurement of vital signs. Entry criteria included a history of type 1 or type 2 diabetes, eGFR 20-75 ml/min/1.73 m2, microalbuminuria or overt proteinuria, blood pressure <140/90 mm Hg on an a ACEi, ARB or the combination, if tolerated. Exclusion criteria included other causes of kidney disease, history of photosensitivity rash, and liver disease. A stratified block randomization scheme was used to maximize the balance of patients with type 1 and type 2 diabetes assigned to each treatment group, using randomization blocks of size 4.
(§1) Eligible subjects were randomly assigned to receive pirfenidone 1200 mg daily, pirfenidone 2400 mg daily, or placebo for 54 weeks. Subjects received two 400 mg capsules of pirfenidone three times, one capsule of pirfenidone and one capsule of placebo three times daily), or two capsules of placebo three times daily. […] If symptoms persisted, the dose was kept at the lowest tolerable dose (but not less than 50% of original dose) if the subject desired to continue in the protocol.
(§2) The primary endpoint was eGFR change from baseline to end of study. Baseline eGFR was determined from two serum creatinine measurements within 3 weeks prior to starting study drug. End of study eGFR was determined from two serum creatinine measurements at week 52 and week 54, prior to stopping study medication. Serum creatinine was measured by the Jaffe method separately at each clinic site laboratory. eGFR was determined by the 4-variable Modification of Diet in Renal Disease Study equation 37. Secondary endpoints included the change in urine ACR and the change in urine TGF-[…]/urine creatinine.
The pre-specified primary endpoint analysis was the eGFR change, compared between each pirfenidone treatment group with placebo group using the Student t-test. […]

[4] = test system: subjects with diabetic nephropathy; assay: Pirfenidone trial, secondary outcomes: urine albumin/creatinine ratio and urine TGF-beta; type: in vivo, human
Experimental: as §2
(§3) Biomarkers were analyzed in plasma and urine from samples collected at both baseline visits and both end-of-study visits, with the two results averaged. Plasma biomarkers were measured by MesoScale Discovery (MSD) platform at the UCSD Clinical Translational Research Institute (CTRI) facility. The MSD platform uses electrochemiluminescence tags on specific antibodies that emit light when electrochemically stimulated. The specific blood biomarkers measured were interferon-y (IFNy), interleukin 1 (IL-1), tumor necrosis factor (TNF), soluble TNF receptor 1 (S TNF R1), YKL40 (also called chitinase like protein or human cartilage glycoprotein-39), brain natriuretic peptide (BNP), and TGF-beta1. Fibroblast growth factor 23 (FGF23) was measured by a C-terminal ELISA assay (Immutopics, San Clemente, Calif.). Urine biomarkers included urine TGF-beta1 (measured by Quantikine, R&D Biosystems, as previously described 29). Urine albumin was measured by nephelometry and urine creatinine was measured by the Jaffe method.
The pre-specified primary endpoint analysis was the eGFR change, compared between each pirfenidone treatment group with placebo group using the Student t-test. Secondary endpoints (ACR change and urine TGF-beta1 change[…]s were similarly evaluated. When one of the two visits was missing, a single observation was used. Due to missing data the assumption that the data points arose from an identical distribution (equal variance) was put in question. Therefore, in addition to the two-sample t-tests, we also performed permutation tests with 10,000 permutations of the treatment assignments, as well as an analysis of covariance (ANCOVA) 38 with iterated re-weighted least-squares (IWLS) 39 as confirmatory analyses. Data are presented as mean±SD for normally distributed variables, and medians and interquartile ranges for skewed variables.

[5] = test system: subjects with diabetic nephropathy; assay: Pirfenidone trial: adverse events and study non-completion; type: in vivo, human; details: for non-completion: Aortic dilation / non-completion: Cancer / non-completion: Dialysis / non-completion: Fatigue / non-completion: Gastrointestinal symptoms / non-completion: Heart failure / non-completion: Rash / non-completion: Urinary tract infection: number of subjects (%)
Experimental: as §1
An analysis based on logistic regression models was conducted to determine whether this violates the assumption of missing completely at random (MCAR) 40. This included using baseline characteristics to predict dropout and using eGFR values at a particular visit to predict dropout at the next visit. The latter part of the logistic regression was fitted using generalized estimating equations (GEE) 41. All data analyses were conducted using R and STATA version 11.0 (College Station, Tex.)

[6] = test system: subjects with diabetic nephropathy; assay: Pirfenidone trial: changes in plasma biomarkers of inflammation and fibrosis; type: in vivo, human; details: for Change in IFN gamma / Change in Plasma TGF Beta / Change in TNF α / Change in YKL40 / Change in BNP / Change in FGF23 / Change in IL1 / Change in S TNF R1: over 52 weeks; for Change in IFN gamma / Change in Plasma TGF Beta / Change in TNF α / Change in YKL40: mean ± SD; for Change in BNP / Change in FGF23 / Change in IL1 / Change in S TNF R1: median and IQR
Experimental: as §3
In exploratory analysis, linear regression was performed to evaluate associations between baseline eGFR as the dependent variable and each biomarker at baseline as the independent variable. Skewed variables were natural log transformed, and each biomarker was evaluated as “per SD greater” to facilitate comparisons of strengths of association. Biomarker change scores were calculated as (end-of-study value—baseline level). Analysis of variance (ANOVA) was used to determine if the change in biomarker levels differed by randomized treatment assignment. It was also whether baseline biomarker levels were associated with eGFR change using multivariable linear regression. These models were adjusted for the other biomarkers and for clinical factors that are well established markers of progressive diabetic nephropathy, including age, sex, race, SBP, DBP, baseline ACR, and baseline eGFR.

[7] = test system: db/db mice; details: cited from earlier work

Cc1ccc(=O)n(-c2ccccc2)c1 [pirfenidone]
urine citrate with interventional treatment [1]: showed an increase | share of subjects who tolerated the dose ([2]; 2400 mg/d, FSGS open label study): ⅔ | reduction in the rate of estimated glomerular filtration rate (eGFR) decline ([2]; compared to the rate of decline before pirfenidone): 25% | eGFR Change, with imputation ([3]; 1200 mg): 3.3 ± 8.5 ml/min/1.73 m^2 | eGFR Change ([3]; 1200 mg): 3.3 ± 8.5 ml/min/1.73 m^2 | eGFR Change, with imputation ([3]; 2400 mg): −2.1 ± 6.4 ml/min/1.73 m^2 | eGFR Change ([3]; 2400 mg): −1.9 ± 6.7 ml/min/1.73 m^2 | subjects who initiated hemodialysis during the study ([3]; pirfenidone 1200 mg group): 0 | mean inter-group difference in eGFR change versus placebo ([3]; pirfenidone 1200 mg, baseline to end-of-study): +5.5 ml/min per 1.73 m^2 | difference in eGFR change versus placebo, baseline to month 6 ([3]; pirfenidone 1200 mg, post-hoc two sample t-test): 5.3 ml/min/1.73 m^2 | eGFR change during the course of the study ([3]; pirfenidone 2400 mg/d, one year (54 weeks), mean±SD): −1.9±6.7 ml/min per 1.73 m^2 | mean difference in eGFR change versus placebo ([3]; pirfenidone 2400 mg, baseline to end-of-study): 0.3 ml/min per 1.73 m^2 | change in urine albumin/creatinine ratio (ACR) from baseline to end of study ([4]; among study groups): no significant differences | albuminuria with treatment ([4]; in vivo): did not decrease | urine TGF-beta levels, increase over 12 months ([4]; pirfenidone 1200 mg group): 0.3 pg/mg | urine TGF-beta levels, decline over 12 months ([4]; pirfenidone 2400 mg group): 0.1 pg/mg | non-completion: Aortic dilation ([5]; 1200 mg (n = 26)): 1 (4%) | non-completion: Cancer ([5]; 1200 mg (n = 26)): 0 (0%) | non-completion: Dialysis ([5]; 1200 mg (n = 26)): 0 (0%) | non-completion: Fatigue ([5]; 1200 mg (n = 26)): 0 (0%) | non-completion: Gastrointestinal symptoms ([5]; 1200 mg (n = 26)): 3 (13%) | non-completion: Heart failure ([5]; 1200 mg (n = 26)): 1 (4%) | non-completion: Rash ([5]; 1200 mg (n = 26)): 1 (4%) | non-completion: Urinary tract infection ([5]; 1200 mg (n = 26)): 0 (0%) | non-completion: Aortic dilation ([5]; 2400 mg (n = 25)): 0 (0%) | non-completion: Cancer ([5]; 2400 mg (n = 25)): One subject | non-completion: Dialysis ([5]; 2400 mg (n = 25)): 1 (4%) | non-completion: Fatigue ([5]; 2400 mg (n = 25)): 3 (12%) | non-completion: Gastrointestinal symptoms ([5]; 2400 mg (n = 25)): 6 (25%) | non-completion: Heart failure ([5]; 2400 mg (n = 25)): 0 (0%) | non-completion: Rash ([5]; 2400 mg (n = 25)): 1 (4%) | non-completion: Urinary tract infection ([5]; 2400 mg (n = 25)): 1 (4%) | non-completion: Cancer ([5]; 2400 mg (n = 25), listed as Prifenidone): 1 (4%) | incidence of gastrointestinal side effects and fatigue ([5]; pirfenidone groups compared to placebo): appeared to be dose related | Non-Completers, n (%) ([5]; randomized to 1200): 9 (35%) | Non-Completers, n (%) ([5]; randomized to 2400): 11 (44%) | Change in IFN gamma ([6]; 1200, n = 14): 0.1 ± 1.9 pg/mL | Change in Plasma TGF Beta ([6]; 1200, n = 14): -2 ± 26 pg/mL | Change in TNF α ([6]; 1200, n = 14): -0.8 ± 2.2 pg/mL | Change in YKL40 ([6]; 1200, n = 14): 6 ± 62 ng/mL | Change in BNP ([6]; 1200, n = 14): −22 (−114, 24) pg/ml | Change in FGF23 ([6]; 1200, n = 14): −3 (−23, 33) RU/ml | Change in IL1 ([6]; 1200, n = 14): 0.0 (−0.3, 0.4) pg/ml | Change in S TNF R1 ([6]; 1200, n = 14): −140 (−497, 148) pg/ml | Change in IFN gamma ([6]; 2400, n = 14): 0.2 ± 2.5 pg/mL | Change in Plasma TGF Beta ([6]; 2400, n = 14): 7 ± 17 pg/mL | Change in TNF α ([6]; 2400, n = 14): -0.7 ± 2.1 pg/mL | Change in YKL40 ([6]; 2400, n = 14): 30 ± 43 ng/mL | Change in BNP ([6]; 2400, n = 14): 45 (−67, 312) pg/ml | Change in FGF23 ([6]; 2400, n = 14): 13 (−6, 63) RU/ml | Change in IL1 ([6]; 2400, n = 14): 0.0 (−0.2, 0.2) pg/ml | Change in S TNF R1 ([6]; 2400, n = 14): 197 (−113, 420) pg/ml | change of inflammatory plasma biomarkers with treatment ([6]; in vivo): none changed significantly | albuminuria ([7]; diabetic db/db mouse): without lowering albuminuria | glomerulosclerosis ([7]; oral, after the onset of established diabetic kidney disease): effective in reducing glomerulosclerosis
